Measurements: ChEMBL document CHEMBL1124074, “Bile acids with a cyclopropyl-containing side chain. 3. Separation, identification, and properties of all four stereoisomers of 3 alpha,7 beta-dihydroxy-22,23-methylene-5 beta-cholan-24-oic acid” (J Med Chem, 1988)

How the values were obtained:
[1] = pKa value was evaluated; type: physicochemical
[2] = Critical micellar concentration was measured in water by the dye solubilization method; type: ADME; details: buffer

Q: What does the source list for CC(C1CC[C@H]2[C@@H]3[C@@H](O)CC4C[C@H](O)CCC4(C)[C@H]3CCC12C)[C@H]1C[C@H]1C(=O)O (some centres undefined)?
A: pKa [1]: 5.05; CMC [2]: 20 mM

Q: What does the source list for C[C@H]([C@@H]1C[C@@H]1C(=O)O)[C@H]1CC[C@H]2[C@@H]3[C@@H](O)CC4C[C@H](O)CC[C@]4(C)[C@H]3CC[C@]12C (some centres undefined)?
A: pKa [1]: 5.02; CMC [2]: 14 mM

Q: Which pKa [1] does the source give for C[C@H]([C@H]1C[C@H]1C(=O)O)[C@H]1CC[C@H]2[C@@H]3[C@@H](O)CC4C[C@H](O)CC[C@]4(C)[C@H]3CC[C@]12C (some centres undefined) here?
A: The pKa was 5.04.

Q: What about the CMC [2] of the same compound?
A: The CMC was 10 mM.

Q: For C[C@H](CCC(=O)O)[C@H]1CC[C@H]2[C@@H]3[C@@H](O)C[C@@H]4C[C@H](O)CC[C@]4(C)[C@H]3CC[C@]12C [URSODIOL], which CMC [2] is on record?
A: Its CMC is 19 mM.

Q: What does the source list for CC(C1CC[C@H]2[C@@H]3[C@@H](O)CC4C[C@H](O)CCC4(C)[C@H]3CCC12C)[C@@H]1C[C@@H]1C(=O)O (some centres undefined)?
A: pKa [1]: 5.04; CMC [2]: 25 mM
